From ChEMBL document CHEMBL1128237, “6-(4-pyridinyl)-1H-1,2,3-triazolo[4,5-d]-pyrimidin-4(5H)-one: a structurally novel competitive AMPA receptor antagonist” (J Med Chem, 1995)

Assays:
[1] = molecular target: Glutamate receptor ionotropic AMPA (Homo sapiens) (UniProt P48058+P42263+P42262+P42261); assay: (§1) Inhibition of Ionotropic glutamate receptor AMPA binding to human hippocampal homogenates at concentration of 5-7 uM; format: tissue-based; conditions: Hippocampus
[2] = Inhibition of [3H]-kainic acid binding to kainate receptor at a concentration of 10 uM
[3] = molecular target: T1, Glutamate receptor ionotropic AMPA (Homo sapiens, UniProt P42261+P42262+P42263+P48058); assay: as §1; format: tissue-based, Hippocampus
[4] = Inhibition of [3H]-CGS 19755 binding to NMDA receptor at a concentration of 10 uM
[5] = Ability to antagonize kainate-induced responses in frog oocyte; format: functional
[6] = Ability to antagonize AMPA-induced responses in frog oocytes; format: functional, cell-based; conditions: oocyte
[7] = molecular target: T1, Glutamate receptor ionotropic AMPA; assay: Inhibition of Ionotropic glutamate receptor AMPA binding to human hippocampal homogenates; format: tissue-based, Hippocampus

With `O=c1[nH]c(-c2ccncc2)nc2c1cnn2C1CCCC1` the inhibition [1] was < 5%.
With `Oc1nc(-c2ccncc2)nc2c(C3CCCC3)n[nH]c12` the inhibition [1] was < 5%.
In the case of `Nc1[nH]c(-c2ccncc2)nc2nnnc1-2`, the inhibition [1] is reported as < 5%.
Work on `Oc1[nH]c(-c2ccncc2)nc2nnnc1-2` yielded an inhibition at 10 µM [2] of 37%, an IC50 [3] of 1800 nM and an inhibition at 10 µM [4] of 17%. It also gave a pA2 [5] of 6.2 and a pA2 [6] of 6.08.
Compound `Oc1nc(-c2ccncc2)nc2c1ncn2C1CCCC1` has an inhibition at 10 µM [2] of 15%, an IC50 [7] of 2100 nM and an inhibition at 10 µM [4] of 25%.
In the case of `Nc1[nH]c(-c2ccncc2)nc2ncnc1-2`, the inhibition [1] is reported as < 5%.
In the case of `Oc1[nH]c(-c2ccncc2)nc2ncnc1-2`, the IC50 [7] is reported as 1900 nM.
In the case of `Cc1nc(O)c2c[nH]nc2n1`, the inhibition [1] is reported as < 5%.
`O=c1[nH]c2cc([N+](=O)[O-])c([N+](=O)[O-])cc2[nH]c1=O` [DNQX] showed an IC50 [3] of 280 nM.
